Test results as given in US8084479B2, “Thiazole compounds and methods of use” (Amgen Inc., priority 2006, dated 2011).

Biological target: PKBα (Homo sapiens, UniProt P31749)
Experiment: PKB kinase assay (P33-labeled ATP, peptide substrate, filter plate)
Type: biochemical
Conditions: PKBα enzyme (full length or kinase domain with pleckstrin domain deleted)
Text: The kinase assay for evaluating PKB activity comprises active PKB enzymes, a PKB specific substrate, and P^33-labeled ATP. […] The phosphorylated substrate was captured by a phosphocellulose membrane filter plate (MLLIPORE) and measured by a Wallac Microbeta liquid scintillation counter (Perkin Elmer).

Chain of PKBα (P31749 118-480 limits assumed): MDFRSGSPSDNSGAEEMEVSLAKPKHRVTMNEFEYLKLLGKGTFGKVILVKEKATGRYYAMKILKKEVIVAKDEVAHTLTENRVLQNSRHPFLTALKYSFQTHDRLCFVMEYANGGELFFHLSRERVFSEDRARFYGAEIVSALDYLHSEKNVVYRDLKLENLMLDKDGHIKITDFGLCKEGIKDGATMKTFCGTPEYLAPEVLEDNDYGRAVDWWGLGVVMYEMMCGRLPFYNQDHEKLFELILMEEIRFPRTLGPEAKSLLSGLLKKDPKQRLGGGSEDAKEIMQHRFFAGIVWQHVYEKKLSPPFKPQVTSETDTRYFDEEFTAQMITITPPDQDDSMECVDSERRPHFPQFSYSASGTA

Compound	IC50 [µM]
N[C@H](CNc1ncc(-c2ccc3c(c2)CC(=O)N3)s1)Cc1c[nH]c2ccccc12 [Example 74, 5-(2-((S)-2-amino-3-(1H-indol-3-yl)propylamino)thiazol-5-yl)indolin-2-one ditrifluoroacetate]	1 to 10
N[C@H](CNc1nc(C2CCCO2)c(-c2ccc3c(c2)CC(=O)N3)s1)Cc1ccc(Cl)cc1 (stereo partly drawn) [Example 197, 5-(2-((S)-2-Amino-3-(4-chlorophenyl)propylamino)-4-(tetrahydrofuran-2-yl)thiazol-5-yl)indolin-2-one]	1 to 10
N[C@H](CNc1ncc(-c2ccc3[nH]c(=O)oc3c2)s1)Cc1ccc(Cl)c(Cl)c1 [Example 115, 6-(2-((S)-2-Amino-3-(3,4-dichlorophenyl)propylamino)thiazol-5-yl)benzo[d]oxazol-2(3H)-one]	< 0.05
Nc1cc2cc(-c3cnc(NC[C@@H](N)Cc4ccc(C(F)(F)F)cc4)s3)ccc2cn1 [Example 75, 6-(2-((S)-2-Amino-3-(4-(trifluoromethyl)phenyl)propylamino)thiazol-5-yl)isoquinolin-3-amine]	< 0.05
COCc1nc(NC[C@@H](N)Cc2ccc(C(F)(F)F)cc2)sc1-c1ccc2[nH]ncc2c1 [Example 14, N—((S)-2-amino-3-(4-(trifluoromethyl)phenyl)propyl)-5-(1H-indazol-5-yl)-4-(methoxymethyl)thiazol-2-amine]	< 0.05
N[C@H](CNc1nc(C#CCO)c(-c2ccc3[nH]c(=O)oc3c2)s1)Cc1ccc(C(F)(F)F)cc1 [Example 150, 6-(2-((S)-2-amino-3-(4-(trifluoromethyl)phenyl)propylamino)-4-(3-hydroxyprop-1-ynyl)thiazol-5-yl)benzo[d]oxazol-2(3H)-one]	< 0.05
CNc1n[nH]c2ccc(-c3cnc(NC[C@@H](N)Cc4c[nH]c5ccccc45)s3)cc12 [Example 45, 5-(2-((S)-2-amino-3-(1H-indol-3-yl)propylamino)thiazol-5-yl)-N-methyl-1H-indazol-3-amine]	1 to 10
N[C@H](CNc1nc(C(=O)N2CCCC2)c(-c2ccc3cnccc3c2)s1)Cc1ccc(C(F)(F)F)cc1 [Example 195, (2-((S)-2-amino-3-(4-(trifluoromethyl)phenyl)propylamino)-5-(isoquinolin-6-yl)thiazol-4-yl)(pyrrolidin-1-yl)methanone]	1 to 10
COc1ccc(C[C@H](N)CNc2ncc(-c3ccc4[nH]c(=O)oc4c3)s2)cc1 [Example 78, 6-(2-((S)-2-amino-3-(4-methoxyphenyl)propylamino)thiazol-5-yl)benzo[d]oxazol-2(3H)-one]	0.05 to 1
N[C@H](CNc1ncc(-c2ccc3c(c2)CC(=O)N3)s1)Cc1ccc(Cl)c(Cl)c1 [Example 114, 5-(2-((S)-2-Amino-3-(3,4-dichlorophenyl)propylamino)thiazol-5-yl)indolin-2-one]	< 0.05
COCc1nc(NC[C@@H](N)Cc2ccc(C(F)(F)F)cc2)sc1-c1ccc2c(c1)CC(=O)N2 [Example 69, 5-(2-((S)-2-amino-3-(4-(trifluoromethyl)phenyl)propylamino)-4-(methoxymethyl)thiazol-5-yl)indolin-2-one]	< 0.05
N[C@H](CNc1nc(C#CC2(O)CCC2)c(-c2ccc3cnccc3c2)s1)Cc1ccc(C(F)(F)F)cc1 [Example 142, 1-(2-(2-((S)-2-amino-3-(4-(trifluoromethyl)phenyl)propylamino)-5-(isoquinolin-6-yl)thiazol-4-yl)ethynyl)cyclobutanol]	0.05 to 1
N[C@H](CNc1ncc(-c2cnc3c(c2)CC(=O)N3)s1)Cc1ccc(C(F)(F)F)cc1 [Example 226, 5-(2-((S)-2-amino-3-(4-(trifluoromethyl)phenyl)propylamino)thiazol-5-yl)-1H-pyrrolo[2,3-b]pyridin-2(3H)-one]	< 0.05
N[C@H](CNc1ncc(-c2ccc3cnncc3c2)s1)Cc1ccc(C(F)(F)F)cc1 [Example 64, N—((S)-2-amino-3-(4-(trifluoromethyl)phenyl)propyl)-5-(phthalazin-6-yl)thiazol-2-amine]	0.05 to 1
C[C@@H](Nc1ncc(-c2ccc3c(c2)CC(=O)N3)s1)[C@@H](N)Cc1ccc(C(F)(F)F)cc1 [Example 229, 5-(2-((2R,3S)-3-amino-4-(4-(trifluoromethyl)phenyl)butan-2-ylamino)thiazol-5-yl)indolin-2-one]	< 0.05
N[C@@H](CNc1ncc(-c2ccc3[nH]c(=O)oc3c2)s1)Cc1ccc(C(F)(F)F)c(F)c1 [Example 182, 6-(2-((R)-2-amino-3-(3-fluoro-4-(trifluoromethyl)phenyl)propylamino)thiazol-5-yl)benzo[d]oxazol-2(3H)-one]	0.05 to 1
NC(CNc1ncc(-c2ccc3cnccc3c2)s1)Cc1ccc(C(F)(F)F)cc1F (stereo not shown) [Example 177, N-(-2-amino-3-(2-fluoro-4-(trifluoromethyl)phenyl)propyl)-5-(isoquinolin-6-yl)thiazol-2-amine]	< 0.05
CS(=O)(=O)NCC#Cc1nc(NC[C@@H](N)Cc2ccc(C(F)(F)F)cc2)sc1-c1ccc2cnccc2c1 [Example 151, N-(3-(2-((S)-2-amino-3-(4-(trifluoromethyl)phenyl)propylamino)-5-(isoquinolin-6-yl)thiazol-4-yl)prop-2-ynyl)methanesulfonamide]	1 to 10
COCc1nc(NC[C@@H](N)Cc2cccc(Cl)c2)sc1-c1nc2ccncc2s1 [Example 18, N—((S)-2-amino-3-(3-chlorophenyl)propyl)-4-(methoxymethyl)-5-(thiazolo[5,4-c]pyridin-2-yl)thiazol-2-amine]	1 to 10
N[C@H](CNc1ncc(-c2ccc3cnccc3c2)s1)Cc1ccc(Cl)s1 [Example 211, N—((S)-2-amino-3-(5-chlorothiophen-2-yl)propyl)-5-(isoquinolin-6-yl)thiazol-2-amine]	< 0.05
COc1cc(C[C@H](N)CNc2ncc(-c3ccc4[nH]c(=O)n(C)c4c3)s2)cnc1C(F)(F)F [Example 175, 6-(2-((S)-2-amino-3-(5-methoxy-6-(trifluoromethyl)pyridin-3-yl)propylamino)thiazol-5-yl)-1-methyl-1H-benzo[d]imidazol-2(3H)-one]	< 0.05
N[C@H](CNc1ncc(-c2ccc3c(c2)CNC3=O)s1)Cc1ccc(C(F)(F)F)cc1 [Example 240, 5-(2-((S)-2-amino-3-(4-(trifluoromethyl)phenyl)propylamino)thiazol-5-yl)isoindolin-1-one]	0.05 to 1
COc1ccc(CC(N)CNc2ncc(-c3ccc4[nH]c(=O)oc4c3)s2)cc1F (stereo not shown) [Example 129, 6-(2-(2-Amino-3-(3-fluoro-4-methoxyphenyl)propylamino)-thiazol-5-yl)benzo[d]oxazol-2(3H)-one]	0.05 to 1
COc1ccc(C[C@H](N)CNc2ncc(-c3nc4ccncc4s3)s2)cc1 [Example 98, N—((S)-2-Amino-3-(4-methoxyphenyl)propyl)-5-(thiazolo[5,4-c]pyridin-2-yl)thiazol-2-amine]	0.05 to 1
N[C@H](CNc1nc(C(F)(F)CO)c(-c2ccc3c(c2)CC(=O)N3)s1)Cc1ccc(C(F)(F)F)cc1 [Example 133, 5-(2-((S)-2-Amino-3-(4-(trifluoromethyl)phenyl)propylamino)-4-(1,1-difluoro-2-hydroxyethyl)thiazol-5-yl)indolin-2-one]	1 to 10
Nc1cc2cc(-c3cnc(NC[C@@H](N)Cc4ccc(Cl)cc4)s3)ccc2cn1 [Example 76, 6-(2-((S)-2-Amino-3-(4-chlorophenyl)propylamino)thiazol-5-yl)isoquinolin-3-amine]	< 0.05
Nc1n[nH]c2ccc(-c3cnc(NC[C@@H](N)Cc4c[nH]c5ccccc45)s3)cc12 [Example 37, 5-(2-((S)-2-amino-3-(1H-indol-3-yl)propylamino)thiazol-5-yl)-1H-indazol-3-amine]	1 to 10
N[C@H](CNc1nc(-c2ccccc2F)c(-c2ccc3cnccc3c2)s1)Cc1ccc(F)cc1 [Example 106, N—((S)-2-Amino-3-(4-fluorophenyl)propyl)-4-(2-fluorophenyl)-5-(isoquinolin-6-yl)thiazol-2-amine]	0.05 to 1
